# Test results from paper PMC6081437, “The potency of the broad spectrum bacteriocin, bactofencin A, against staphylococci is highly dependent on primary structure, N-terminal charge and disulphide formation” (Scientific Reports, 2018).
# Bridge positions count the residues as written; N and C are the ends. Square brackets hold non-standard residues; d marks the D form. Ends that are not written are not given here. Peptide text beside a SMILES is read from it.
# System: S. aureus DPC5246
# Type: cell-based, Staphylococcus aureus
# Settings: for Activity (Minimum Inhibitory Concentration, MIC): DPC5246, pH 6.8; for fold reduction in activity compared with bactofencin A (wild type): S. aureus DPC5246, agar well diffusion MIC
# Outline: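 Agar well diffusion assay: peptides in 50 mM sodium phosphate pH 6.8, 1-in-4 dilutions from 1000 µM stock (250 to 0.24 µM) applied to S. aureus DPC5246 indicator plates at 37 °C. MIC is the lowest concentration giving an inhibition zone, in triplicate; concentrations rounded to whole numbers.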
Molecule,"Activity (Minimum Inhibitory Concentration, MIC)",fold reduction in activity compared with bactofencin A (wild type)
CSCC[C@@H]1NC(=O)CNC(=O)[C@H]([C@@H](C)O)NC(=O)[C@@H]2CCCN2C(=O)[C@H](CCSC)NC(=O)CNC(=O)[C@H](CC(N)=O)NC(=O)[C@H](CC(N)=O)NC(=O)[C@H](Cc2ccc(O)cc2)NC(=O)[C@H](C(C)C)NC(=O)[C@H](CCCNC(=N)N)NC(=O)[C@@H](NC(=O)[C@H](CCCNC(=N)N)NC(=O)[C@H](Cc2c[nH]cn2)NC(=O)[C@H](CCCCN)NC(=O)[C@H](CCCCN)NC(=O)[C@H](CCCNC(=N)N)NC(=O)[C@@H](N)CCCCN)CSSC[C@@H](C(=O)O)NC(=O)[C@H](Cc2c[nH]c3ccccc23)NC(=O)[C@@H](CCCNC(=N)N)NC(=O)[C@H](Cc2ccc(O)cc2)NC1=O [R20Rd] (H-KRKKHRCRVYNNGMPTGMY[dR]WC-OH; disulfide 7-22; N-terminus assumed),4 µM,–
CSCC[C@@H]1NC(=O)CNC(=O)[C@H]([C@@H](C)O)NC(=O)[C@@H]2CCCN2C(=O)[C@H](CCSC)NC(=O)CNC(=O)[C@H](CC(N)=O)NC(=O)[C@H](CC(N)=O)NC(=O)[C@H](Cc2ccc(O)cc2)NC(=O)[C@H](C)NC(=O)[C@H](CCCNC(=N)N)NC(=O)[C@@H](NC(=O)[C@H](CCCNC(=N)N)NC(=O)[C@H](Cc2c[nH]cn2)NC(=O)[C@H](CCCCN)NC(=O)[C@H](CCCCN)NC(=O)[C@H](CCCNC(=N)N)NC(=O)[C@@H](N)CCCCN)CSSC[C@@H](C(=O)O)NC(=O)[C@H](Cc2c[nH]c3ccccc23)NC(=O)[C@H](CCCNC(=N)N)NC(=O)[C@H](Cc2ccc(O)cc2)NC1=O [V9A] (H-KRKKHRCRAYNNGMPTGMYRWC-OH; disulfide 7-22),4 µM,–
CSCC[C@@H]1NC(=O)CNC(=O)[C@H]([C@@H](C)O)NC(=O)[C@@H]2CCCN2C(=O)[C@H](CCSC)NC(=O)CNC(=O)[C@H](CC(N)=O)NC(=O)[C@H](CC(N)=O)NC(=O)[C@H](Cc2ccc(O)cc2)NC(=O)[C@H](C(C)C)NC(=O)[C@H](CCCNC(=N)N)NC(=O)[C@@H](NC(=O)[C@H](CCCNC(=N)N)NC(=O)[C@H](Cc2c[nH]cn2)NC(=O)[C@H](CCCCN)NC(=O)[C@H](CCCCN)NC(=O)[C@H](CCCNC(=N)N)NC(=O)[C@@H](N)CCCCN)CSSC[C@H](C(=O)O)NC(=O)[C@H](Cc2c[nH]c3ccccc23)NC(=O)[C@H](CCCNC(=N)N)NC(=O)[C@H](Cc2ccc(O)cc2)NC1=O [C22Cd] (H-KRKKHRCRVYNNGMPTGMYRW[dC]-OH; disulfide 7-22; N-terminus assumed),4 µM,–
CSCC[C@@H]1NC(=O)CNC(=O)[C@H]([C@@H](C)O)NC(=O)[C@@H]2CCCN2C(=O)[C@H](CCSC)NC(=O)CNC(=O)[C@H](CC(N)=O)NC(=O)[C@H](CC(N)=O)NC(=O)[C@H](Cc2ccc(O)cc2)NC(=O)[C@H](C(C)C)NC(=O)[C@H](CCCNC(=N)N)NC(=O)[C@@H](NC(=O)[C@H](C)NC(=O)[C@H](Cc2c[nH]cn2)NC(=O)[C@H](CCCCN)NC(=O)[C@H](CCCCN)NC(=O)[C@H](CCCNC(=N)N)NC(=O)[C@@H](N)CCCCN)CSSC[C@@H](C(=O)O)NC(=O)[C@H](Cc2c[nH]c3ccccc23)NC(=O)[C@H](CCCNC(=N)N)NC(=O)[C@H](Cc2ccc(O)cc2)NC1=O [R6A] (H-KRKKHACRVYNNGMPTGMYRWC-OH; disulfide 7-22),1 µM,–
CSCC[C@@H]1NC(=O)CNC(=O)[C@H]([C@@H](C)O)NC(=O)[C@@H]2CCCN2C(=O)[C@H](CCSC)NC(=O)CNC(=O)[C@H](CC(N)=O)NC(=O)[C@H](CC(N)=O)NC(=O)[C@H](Cc2ccc(O)cc2)NC(=O)[C@H](C(C)C)NC(=O)[C@H](CCCNC(=N)N)NC(=O)[C@@H](N)CSSC[C@@H](C(=O)O)NC(=O)[C@H](Cc2c[nH]c3ccccc23)NC(=O)[C@H](CCCNC(=N)N)NC(=O)[C@H](Cc2ccc(O)cc2)NC1=O [C7-C22] (H-CRVYNNGMPTGMYRWC-OH; disulfide 1-16; N-terminus assumed),> 1000 µM,–
CSCC[C@@H]1NC(=O)CNC(=O)[C@H]([C@@H](C)O)NC(=O)[C@@H]2CCCN2C(=O)[C@H](CCSC)NC(=O)CNC(=O)[C@H](CC(N)=O)NC(=O)[C@H](CC(N)=O)NC(=O)[C@H](Cc2ccc(O)cc2)NC(=O)[C@H](C(C)C)NC(=O)[C@H](CCCNC(=N)N)NC(=O)[C@@H](NC(=O)[C@H](CCCNC(=N)N)NC(=O)[C@H](Cc2c[nH]cn2)NC(=O)[C@H](CCCCN)NC(=O)[C@H](C)NC(=O)[C@H](CCCNC(=N)N)NC(=O)[C@@H](N)CCCCN)CSSC[C@@H](C(=O)O)NC(=O)[C@H](Cc2c[nH]c3ccccc23)NC(=O)[C@H](CCCNC(=N)N)NC(=O)[C@H](Cc2ccc(O)cc2)NC1=O [K3A] (H-KRAKHRCRVYNNGMPTGMYRWC-OH; disulfide 7-22),1 µM,–
CSCC[C@@H]1NC(=O)CNC(=O)[C@H]([C@@H](C)O)NC(=O)[C@@H]2CCCN2C(=O)[C@H](CCSC)NC(=O)CNC(=O)[C@H](CC(N)=O)NC(=O)[C@H](CC(N)=O)NC(=O)[C@H](Cc2ccc(O)cc2)NC(=O)[C@H](C(C)C)NC(=O)[C@H](CCCNC(=N)N)NC(=O)[C@@H](NC(=O)[C@H](CCCNC(=N)N)NC(=O)[C@H](C)NC(=O)[C@H](CCCCN)NC(=O)[C@H](CCCCN)NC(=O)[C@H](CCCNC(=N)N)NC(=O)[C@@H](N)CCCCN)CSSC[C@@H](C(=O)O)NC(=O)[C@H](Cc2c[nH]c3ccccc23)NC(=O)[C@H](CCCNC(=N)N)NC(=O)[C@H](Cc2ccc(O)cc2)NC1=O [H5A] (H-KRKKARCRVYNNGMPTGMYRWC-OH; disulfide 7-22),1 µM,–
KRKKHRCRVYNNGMPTGMYRWS [C22S],250 µM,250 fold
CSCC[C@@H]1NC(=O)CNC(=O)[C@H]([C@@H](C)O)NC(=O)[C@@H]2CCCN2C(=O)[C@H](CCSC)NC(=O)CNC(=O)[C@H](CC(N)=O)NC(=O)[C@H](CC(N)=O)NC(=O)[C@H](Cc2ccc(O)cc2)NC(=O)[C@H](C(C)C)NC(=O)[C@H](CCCNC(=N)N)NC(=O)[C@@H](NC(=O)[C@H](CCCNC(=N)N)NC(=O)[C@H](Cc2c[nH]cn2)NC(=O)[C@H](CCCCN)NC(=O)[C@H](CCCCN)NC(=O)[C@H](CCCNC(=N)N)NC(=O)[C@@H](N)CCCCN)CSSC[C@@H](C(=O)O)NC(=O)[C@H](Cc2c[nH]c3ccccc23)NC(=O)[C@H](CCCNC(=N)N)NC(=O)[C@@H](Cc2ccc(O)cc2)NC1=O [Y19Yd] (H-KRKKHRCRVYNNGMPTGM[dY]RWC-OH; disulfide 7-22; N-terminus assumed),63 µM,63 fold
CSCC[C@@H]1NC(=O)CNC(=O)[C@H](CC(N)=O)NC(=O)[C@H](CC(N)=O)NC(=O)[C@H](Cc2ccc(O)cc2)NC(=O)[C@H](C(C)C)NC(=O)[C@H](CCCNC(=N)N)NC(=O)[C@@H](NC(=O)[C@H](CCCNC(=N)N)NC(=O)[C@H](Cc2c[nH]cn2)NC(=O)[C@H](CCCCN)NC(=O)[C@H](CCCCN)NC(=O)[C@H](CCCNC(=N)N)NC(=O)[C@@H](N)CCCCN)CSSC[C@@H](C(=O)O)NC(=O)[C@H](Cc2c[nH]c3ccccc23)NC(=O)[C@H](CCCNC(=N)N)NC(=O)[C@H](Cc2ccc(O)cc2)NC(=O)[C@H](CCSC)NC(=O)CNC(=O)[C@H]([C@@H](C)O)NC(=O)[C@H](C)NC1=O [P15A] (H-KRKKHRCRVYNNGMATGMYRWC-OH; disulfide 7-22),1 µM,–
KRKKHRCRVYNNGMPTGMYRWA-OH [C22A],63 µM,63 fold
CSCC[C@@H]1NC(=O)CNC(=O)[C@H](CC(N)=O)NC(=O)[C@H](CC(N)=O)NC(=O)[C@H](Cc2ccc(O)cc2)NC(=O)[C@H](C(C)C)NC(=O)[C@H](CCCNC(=N)N)NC(=O)[C@@H](NC(=O)[C@H](CCCNC(=N)N)NC(=O)[C@H](Cc2c[nH]cn2)NC(=O)[C@H](CCCCN)NC(=O)[C@H](CCCCN)NC(=O)[C@H](CCCNC(=N)N)NC(=O)[C@@H](N)CCCCN)CSSC[C@@H](C(=O)O)NC(=O)[C@H](Cc2c[nH]c3ccccc23)NC(=O)[C@H](CCCNC(=N)N)NC(=O)[C@H](Cc2ccc(O)cc2)NC(=O)[C@@H](CCSC)NC(=O)CNC(=O)[C@H]([C@@H](C)O)NC(=O)[C@@H]2CCCN2C1=O [M18Md] (H-KRKKHRCRVYNNGMPTG[dM]YRWC-OH; disulfide 7-22; N-terminus assumed),16 µM,–
CSCC[C@@H]1NC(=O)CNC(=O)[C@H]([C@@H](C)O)NC(=O)[C@@H]2CCCN2C(=O)[C@H](CCSC)NC(=O)CNC(=O)[C@H](CC(N)=O)NC(=O)[C@H](CC(N)=O)NC(=O)[C@H](C)NC(=O)[C@H](C(C)C)NC(=O)[C@H](CCCNC(=N)N)NC(=O)[C@@H](NC(=O)[C@H](CCCNC(=N)N)NC(=O)[C@H](Cc2c[nH]cn2)NC(=O)[C@H](CCCCN)NC(=O)[C@H](CCCCN)NC(=O)[C@H](CCCNC(=N)N)NC(=O)[C@@H](N)CCCCN)CSSC[C@@H](C(=O)O)NC(=O)[C@H](Cc2c[nH]c3ccccc23)NC(=O)[C@H](CCCNC(=N)N)NC(=O)[C@H](Cc2ccc(O)cc2)NC1=O [Y10A] (H-KRKKHRCRVANNGMPTGMYRWC-OH; disulfide 7-22),4 µM,–
CSCC[C@@H]1NC(=O)CNC(=O)[C@H]([C@@H](C)O)NC(=O)[C@@H]2CCCN2C(=O)[C@H](CCSC)NC(=O)CNC(=O)[C@H](CC(N)=O)NC(=O)[C@H](CC(N)=O)NC(=O)[C@H](Cc2ccc(O)cc2)NC(=O)[C@H](C(C)C)NC(=O)[C@H](C)NC(=O)[C@@H](NC(=O)[C@H](CCCNC(=N)N)NC(=O)[C@H](Cc2c[nH]cn2)NC(=O)[C@H](CCCCN)NC(=O)[C@H](CCCCN)NC(=O)[C@H](CCCNC(=N)N)NC(=O)[C@@H](N)CCCCN)CSSC[C@@H](C(=O)O)NC(=O)[C@H](Cc2c[nH]c3ccccc23)NC(=O)[C@H](CCCNC(=N)N)NC(=O)[C@H](Cc2ccc(O)cc2)NC1=O [R8A] (H-KRKKHRCAVYNNGMPTGMYRWC-OH; disulfide 7-22),1 µM,–
